Measured values as given in publication PMC12671775 (PLOS Genetics, 2025).

Legend:
[1] = biological target: T1, ChuaHNL (hydroxynitrile lyase, CHUA_005138) (Chamberlinius hualienensis, UniProt A0A0H5BR52); type: biochemical
T1 construct: N-terminal His-tagged, produced in Pichia pastoris

O=Cc1ccccc1 = test: purified protein

`N#CC(O)c1ccccc1` (racemic) [MAN, (R,S)-mandelonitrile] gave a Km [1] of 13.7 ± 2.35 mM.

Work on “ChuaHNL (hydroxynitrile lyase, CHUA_005138) (Chamberlinius hualienensis)” yielded a Km (O=Cc1ccccc1) of 4.31 ± 0.771 mM.
